Assay results: ChEMBL document CHEMBL1201862, “PubChem BioAssay data set” (2004)
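A five-concentration, 48-hour dose response in 96-well plates underlies each endpoint, interpolated linearly between surrounding concentrations. GI50 is the concentration that inhibits growth by half.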 Active and inactive are the calls of the source. Cut-off read from the data, not from the text of the source: active = GI50 up to about 1.1 µM and inactive = higher.

Tests used:
Test in all cases: growth of human tumour cells (NCI), 48 h
[1] = tested on: MCF7
[2] = tested on: SN12C
[3] = tested on: SNB-75
[4] = tested on: K562
[5] = tested on: T47D
[6] = tested on: HOP-62
[7] = tested on: SF-539
[8] = tested on: HCT-15
[9] = tested on: A498
[10] = tested on: NCI-H460
[11] = tested on: NCI-H522
[12] = tested on: SW-620
[13] = tested on: SK-OV-3
[14] = tested on: SK-MEL-28
[15] = tested on: BT-549
[16] = tested on: LXFL 529
[17] = tested on: UACC-257
[18] = tested on: OVCAR-4
[19] = tested on: SF-295
[20] = tested on: UO-31

With COC12C(COC(=O)NCCO)C3=C(C(=O)C(C)=C(N)C3=O)N1CC1NC12 (stereo not given) the GI50 [1] was 16 µM (inactive), the GI50 [2] was 7.94 µM (inactive) and the GI50 [3] was 17.4 µM (inactive). For the same compound, the GI50 [4] was 103 µM (inactive), the GI50 [5] was 60.3 µM (inactive) and the GI50 [6] was 6.47 µM (inactive). The GI50 [7] was 7.83 µM (inactive), the GI50 [8] was 170 µM and the GI50 [9] was 60.7 µM (inactive). The GI50 [10] was 5.01 µM (inactive), the GI50 [11] was 14.5 µM (inactive) and the GI50 [12] was 16.7 µM (inactive). The GI50 [13] was 24.4 µM (inactive), the GI50 [14] was > 100 µM (inactive) and the GI50 [15] was 54.5 µM (inactive). For the same compound, the GI50 [16] was 56.2 µM (inactive), the GI50 [17] was 69.7 µM (inactive) and the GI50 [18] was 65.8 µM (inactive). For the same compound, the GI50 [19] was 6.62 µM (inactive) and the GI50 [20] was > 100 µM (inactive).
